Data as given in the supplement of paper PMC10307832.

What was measured:
Assay in all cases: relative viability (nuclei count vs DMSO), 5 days (fraction); higher = more cells survive
Afatinib + Vorinostat = compound: CN(C)C/C=C/C(=O)Nc1cc2c(Nc3ccc(F)c(Cl)c3)ncnc2cc1O[C@H]1CCOC1 [Afatinib] + O=C(CCCCCCC(=O)Nc1ccccc1)NO [Vorinostat] (partner 1 µM)
In short: (§1)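 Relative viability equals treated-well nuclei counts divided by vehicle-well nuclei counts. Counts came from 4× images of lung cancer cell lines grown in 1536-well plates for 5 days after pin-tool dosing on the day after seeding. Dosing used one drug alone or a fixed anchor-drug dose plus five library-drug doses (not always all listed) in √10 steps, and values are medians of duplicate plates.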

Afatinib + Palbociclib = compound: CN(C)C/C=C/C(=O)Nc1cc2c(Nc3ccc(F)c(Cl)c3)ncnc2cc1O[C@H]1CCOC1 [Afatinib] + CC(=O)c1c(C)c2cnc(Nc3ccc(N4CCNCC4)cn3)nc2n(C2CCCC2)c1=O [Palbociclib] (partner 0.5 µM)
In short: as §1

Afatinib + Dasatinib = compound: CN(C)C/C=C/C(=O)Nc1cc2c(Nc3ccc(F)c(Cl)c3)ncnc2cc1O[C@H]1CCOC1 [Afatinib] + Cc1nc(Nc2ncc(C(=O)Nc3c(C)cccc3Cl)s2)cc(N2CCN(CCO)CC2)n1 [Dasatinib] (partner 0.075 µM)
In short: as §1

Afatinib + Pemetrexed = compound: CN(C)C/C=C/C(=O)Nc1cc2c(Nc3ccc(F)c(Cl)c3)ncnc2cc1O[C@H]1CCOC1 [Afatinib] + Nc1nc2[nH]cc(CCc3ccc(C(=O)N[C@@H](CCC(=O)O)C(=O)O)cc3)c2c(=O)[nH]1 [Pemetrexed] (partner 0.2 µM)
In short: as §1

Cell Line	relative viability (Afatinib + Vorinostat; first compound 0.005 µM)	relative viability (Afatinib + Vorinostat; first compound 0.01581 µM)	relative viability (Afatinib + Vorinostat; first compound 0.05 µM)	relative viability (Afatinib + Vorinostat; first compound 0.1581 µM)	relative viability (Afatinib + Vorinostat; first compound 0.5 µM)	relative viability (Afatinib + Palbociclib; first compound 0.005 µM)	relative viability (Afatinib + Palbociclib; first compound 0.01581 µM)	relative viability (Afatinib + Palbociclib; first compound 0.05 µM)	relative viability (Afatinib + Palbociclib; first compound 0.1581 µM)	relative viability (Afatinib + Palbociclib; first compound 0.5 µM)	relative viability (Afatinib + Dasatinib; first compound 0.005 µM)	relative viability (Afatinib + Dasatinib; first compound 0.01581 µM)	relative viability (Afatinib + Dasatinib; first compound 0.05 µM)	relative viability (Afatinib + Dasatinib; first compound 0.1581 µM)	relative viability (Afatinib + Dasatinib; first compound 0.5 µM)	relative viability (Afatinib + Pemetrexed; first compound 0.005 µM)	relative viability (Afatinib + Pemetrexed; first compound 0.01581 µM)	relative viability (Afatinib + Pemetrexed; first compound 0.05 µM)	relative viability (Afatinib + Pemetrexed; first compound 0.1581 µM)	relative viability (Afatinib + Pemetrexed; first compound 0.5 µM)
201T	0.936	0.902	0.922	0.783	0.957	0.336	0.346	0.354	0.358	0.339	0.589	0.517	0.581	0.56	0.544	0.294	0.353	0.379	0.38	0.31
A-427	0.929	0.89	0.848	0.833	0.908	0.523	0.526	0.537	0.483	0.505	0.661	0.741	0.631	0.669	0.72	1.05	1.03	1.05	0.969	0.983
ABC-1	1.47		1.13	1.24	1.08	0.559		0.576	0.572	0.561	0.559	0.58	0.621	0.472	0.516					
BEN	0.588	0.564	0.559	0.557	0.574	0.447	0.565	0.535	0.455	0.484	0.337	0.283	0.323	0.336	0.313	0.801	0.785	0.753	0.772	0.819
CAL-12T	0.727	0.647	0.552	0.364	0.396	0.51	0.209	0.213	0.172	0.161	0.261	0.236	0.193	0.189	0.194	1.22	0.928	1.46	0.491	0.855
COR-L23	0.682	0.443	0.484	0.39	0.485	0.329	0.308	0.317	0.274	0.339	0.575	0.484	0.536	0.426	0.535	0.22	0.201	0.214	0.201	0.192
COR-L 105	0.667	0.386	0.47	0.336	0.386	0.398	0.355	0.3	0.36	0.352	0.206	0.119	0.142	0.137	0.148	0.837	0.503	0.542	0.353	0.377
ChaGo-K-1	0.81	0.777	0.789	0.754	0.695	0.932	0.977	0.977	0.864	0.96	0.631	0.52	0.535	0.65	0.541	0.246	0.262	0.268	0.257	0.247
EKVX	0.588	0.385	0.284	0.31	0.276	0.317	0.265	0.188	0.147	0.141	0.334	0.429	0.339	0.319	0.231	0.318	0.271	0.254	0.187	0.185
EMC-BAC-2	0.558	0.236	0.596	0.465	0.438	0.539	0.531	0.551	0.498	0.519	0.314	0.302	0.33	0.315	0.296	0.441	0.496	0.462	0.523	0.511
EPLC-272H	0.402	0.387	0.347	0.448	0.273	0.31	0.294	0.283	0.284	0.292	0.326	0.341	0.262	0.253	0.244	0.349	0.381	0.301	0.285	0.318
H3255	0.277	0.207	0.229	0.185	0.952	0.267	0.269	0.289	0.26	0.258	0.202	0.195	0.264	0.326	0.242	0.365	0.313	0.306	0.307	0.273
HARA	0.586	0.543		0.458	0.58	0.188	0.242	0.204	0.189	0.197	0.179	0.182	0.217	0.178	0.209	0.21		0.185	0.217	0.225
HCC-15	0.904	0.92	0.816	0.785	0.887	0.743	0.753	0.702	0.755	0.746	0.609	0.646	0.617	0.609	0.642	0.226	0.222		0.207	0.234
HCC-44	1.18	1.09	1.18	1.1	1.05	1	0.968	1.05	0.944	1.02						0.654	0.645	0.733	0.657	0.661
HCC-78	0.433	0.404	0.422	0.345	0.376	0.46	0.41	0.452	0.594	0.461	0.445	0.341	0.366	0.29	0.331	0.924	0.869	0.904	0.915	0.902
HCC-366	0.329	0.36	0.348	0.36	0.345	0.469	0.361	0.443	0.37	0.456	0.697	0.666	0.605	0.62	0.723	0.16	0.173	0.146	0.196	0.168
HCC-827	0.166	0.134	0.146	0.151	0.146	0.158	0.139	0.164	0.171	0.136	0.14	0.135	0.16	0.175	0.15	0.118	0.157	0.153	0.153	0.159

Cell Line	relative viability (Afatinib + Vorinostat; first compound 0.005 µM)	relative viability (Afatinib + Vorinostat; first compound 0.01581 µM)	relative viability (Afatinib + Vorinostat; first compound 0.05 µM)	relative viability (Afatinib + Vorinostat; first compound 0.1581 µM)	relative viability (Afatinib + Vorinostat; first compound 0.5 µM)	relative viability (Afatinib + Palbociclib; first compound 0.005 µM)	relative viability (Afatinib + Palbociclib; first compound 0.01581 µM)	relative viability (Afatinib + Palbociclib; first compound 0.05 µM)	relative viability (Afatinib + Palbociclib; first compound 0.1581 µM)	relative viability (Afatinib + Palbociclib; first compound 0.5 µM)	relative viability (Afatinib + Dasatinib; first compound 0.005 µM)	relative viability (Afatinib + Dasatinib; first compound 0.01581 µM)	relative viability (Afatinib + Dasatinib; first compound 0.05 µM)	relative viability (Afatinib + Dasatinib; first compound 0.1581 µM)	relative viability (Afatinib + Dasatinib; first compound 0.5 µM)	relative viability (Afatinib + Pemetrexed; first compound 0.005 µM)	relative viability (Afatinib + Pemetrexed; first compound 0.01581 µM)	relative viability (Afatinib + Pemetrexed; first compound 0.05 µM)	relative viability (Afatinib + Pemetrexed; first compound 0.1581 µM)	relative viability (Afatinib + Pemetrexed; first compound 0.5 µM)
HOP-62	0.736	0.655	0.746	0.727	0.673	0.415	0.431	0.523	0.48	0.445	0.701	0.639	0.731	0.648	0.693	0.305	0.302	0.328	0.338	0.292
IA-LM	1.1	0.964	0.866	0.81	0.892															
LC-2-ad	0.767	0.717	0.705	0.662	0.78	0.494	0.489	0.483	0.447	0.477	0.735	0.389	0.527	0.509	0.477	0.275	0.273	0.259	0.28	0.274
LCLC-97TM1	0.793	0.784	0.861	0.628	0.646	0.222	0.232	0.23	0.239	0.201	0.926	0.766	0.812	0.709	0.842	0.17	0.187	0.191	0.21	0.152
LCLC-103H	0.809	0.817	0.703	0.732	0.704	0.452	0.495	0.443	0.436	0.485	0.424	0.454	0.48	0.459	0.483	0.485	0.478	0.514	0.492	0.48
LK-2	0.349	0.269	0.277	0.2	0.382	0.621	0.633	0.656	0.673	0.584	0.26	0.359	0.28	0.216	0.269	0.33	0.229	0.239	0.326	0.248
LOU-NH91	0.742	0.776	0.837	0.748	0.848	0.533	0.535	0.538	0.564	0.538	0.399	0.421	0.486	0.424	0.4	0.371	0.424	0.393	0.433	0.418
LU99A	0.467	0.61	0.487	0.419	0.502	0.451	0.39	0.425	0.36	0.391	0.741	0.591	0.594	0.569	0.493	0.158	0.192	0.18	0.206	0.181
LXF-289	0.762	0.678	0.748	0.753	0.716	0.604	0.561	0.553	0.486	0.533	0.238	0.27	0.253	0.208	0.228	0.909	0.88	0.843	0.879	0.824
NCI-H23	0.787	0.589	0.615	0.619	0.591	0.561	0.469	0.482	0.486	0.448	0.682	0.69	0.754	0.884	0.83	0.667	0.609	0.586	0.704	0.567
NCI-H322M	0.825	0.506	0.658	0.61	0.567	0.467	0.434	0.394	0.358	0.378	0.246	0.229	0.231	0.233	0.248	0.563	0.534	0.523	0.531	0.509
NCI-H358	0.514	0.432	0.375	0.207	0.253	0.14	0.111	0.12	0.118	0.0955	0.125	0.111	0.113	0.156	0.128	0.16	0.146	0.153	0.137	0.141
NCI-H596	0.706	0.541	0.571	0.745	0.62						0.445	0.456	0.643	0.538	0.602	0.537	0.492	0.504	0.548	0.489
NCI-H727	1.08	0.953	1	0.906	0.956	0.586	0.637	0.6	0.506	0.544	0.366		0.204	0.282	0.249					
NCI-H1563											0.476	0.435	0.437	0.501	0.451	0.782	0.719	0.921	0.777	0.822
NCI-H1648	0.398	0.421	0.271	0.421	0.26	0.248	0.304	0.269	0.344	0.263						0.99	1.1	0.458	0.431	0.426
NCI-H1792						0.73	0.661	0.63	0.599	0.651	0.657	0.84	0.748	0.657	0.911	0.781	0.647	0.751	0.824	0.522
